We go through two substances from paper PMC3742671, “Structure, Antimicrobial Activities and Mode of Interaction with Membranes of Bovel Phylloseptins from the Painted-Belly Leaf Frog, Phyllomedusa sauvagii” (PLoS ONE, 2013).

The subject of one data set is S. aureus ATCC 25923. The note with it: LB medium (pH 7), absorbance at 630 nm, 96-well plates; average of three independent experiments in triplicates. The method, then: (§1) The effect of phylloseptins-S was evaluated against several bacterial strains and yeasts (Table 2). Bacteria were cultured in Luria-Bertani broth (LB), whereas yeasts were cultured in Yeast Peptone Dextrose medium (YPD), and minimal inhibitory concentrations (MICs) were determined by measuring the absorbance at 630 nm in 96-well microtitration plates, as described previously. Leishmanicidal activity of phylloseptins-S was also examined against promastigotes of different Leishmania species: Leishmania infantum (strain MHOM/MA/67/ITMAP-263), L. major (MHOM/SU/73/5-ASKH) and L. braziliensis (MHOM/BR/75/M2904). Culture of promastigotes and determination of the growth inhibition were performed as previously described, [22], [23].
(§2) The antimicrobial activity of synthetic PLS-S1 to -S5 was assayed in LB medium (pH 7) against several Gram-negative and Gram-positive bacteria, and multi-drug resistant S. aureus strains. […] The antiparasitic activity of PLSs was also determined against three Leishmania species (L. infantum, L. major, and L. braziliensis). […] Because PLS-S3 contains histidines as basic residues and that approximately only 11% of these residues are positively charged at pH 7, we have evaluated the antibacterial activity at pH 5 at which His residues are predominantly positively charged (∼91%).

The next data set relates to K. pneumoniae ATCC 13883. The following applies: LB medium (pH 7), absorbance at 630 nm; average of three independent experiments in triplicates. On the procedure:
as §1, §2

The next data set concerns E. coli ATCC 25922. The note with it: for MIC: ATCC 25922, pH 7. On the procedure: as §1, §2
Another data set concerns S. pyogenes ATCC 19615. The following applies: LB medium (pH 7), absorbance at 630 nm; average of three independent experiments in triplicates. The method, then:
as §1, §2

A further data set deals with E. faecalis ATCC 29212. The following applies: LB medium (pH 7), absorbance at 630 nm; average of three independent experiments in triplicates. The method, then:
as §1, §2

A further data set deals with S. aureus ATCC 43300. The following applies: strain resistant to methicillin and oxacillin; LB medium (pH 7), absorbance at 630 nm; average of three independent experiments in triplicates. On the procedure: as §1, §2
In a further data set the test system is E. coli ML-35p. The following applies: LB medium (pH 7), absorbance at 630 nm; average of three independent experiments in triplicates. On the procedure: as §1, §2
The subject of a further data set is A. baumannii ATCC 19606. The following applies: LB medium (pH 7), absorbance at 630 nm; average of three independent experiments in triplicates. The method, then: as §1, §2
A further data set relates to P. aeruginosa ATCC 27853. The note with it: LB medium (pH 7), absorbance at 630 nm; average of three independent experiments in triplicates. On the procedure:
as §1, §2

The next data set relates to S. aureus ATCC BAA-44. The following applies: multidrug resistant strain; LB medium (pH 7), absorbance at 630 nm; average of three independent experiments in triplicates. On the procedure:
as §1, §2

For another data set, the system named is S. aureus ST1065. The note with it: LB medium (pH 7), absorbance at 630 nm; average of three independent experiments in triplicates. On the procedure:
as §1, §2

Data set [1] is described as follows: Circular dichroism spectroscopy in SDS micelles. It counts as physicochemical. The note with it: CD, peptide 30 µM in 80 mM SDS. The method, then: (§3) The far-ultraviolet circular dichroism (CD) spectra were recorded as described. Phylloseptins-S (30 µM) were solubilized either in 80 mM sodium dodecyl sulfate (SDS) or in phosphate-buffered saline (PBS: 10 mM phosphate, pH 7.3) containing 1 mg/mL of large unilamellar vesicles (LUVs) of 1,2-dimyristoyl-sn-glycero-3-phosphocholine (DMPC) and 1,2-dimyristoyl-sn-glycero-3-phosphoglycerol (DMPG) (3∶1 mol/mol). DMPC and DMPG were purchased from Avanti Polar Lipids, Inc. Each spectrum was the average of four scans. CD measurements are reported as Δ/n, where Δ is the dichroic increment and n is the number of residues in the peptide.
(§4) Figure 6 Circular dichroism spectra of synthetic phylloseptins-S (30 µM). (A) DMPC/DMPG (3∶1) large unilamellar vesicles in PBS (1 mg/mL). (B) 80 mM SDS. CD measurements are reported as the dichroic increment (Δε) per residue.
A general note: Circular dichroism is the unequal absorption of left and right circularly polarised light.

Another data set relates to S. cerevisiae. It counts as cell-based. On the procedure: as §1
In data set [2] the test system is C. parapsilosis ATCC 22019. It counts as cell-based. On the procedure: as §1
A short description of data set [3]: Circular dichroism spectroscopy with DMPC/DMPG (3:1) large unilamellar vesicles. The note with it: CD, peptide 30 µM, DMPC/DMPG (3:1) LUVs 1 mg/mL in PBS pH 7.3. In kind it is physicochemical. On the procedure:
as §3, §4

Ends that are not written are not given here.

One may read the MIC as the lowest concentration found to suppress growth. Higher therefore signals a less susceptible organism. As for FLSLIPHIVSGVASLAIHF-NH2 [PLS-S3], the MIC was above 200 µM in the data set on S. aureus ATCC 25923; above 200 µM with K. pneumoniae ATCC 13883; above 200 µM with E. coli ATCC 25922; 12.5 µM against S. pyogenes ATCC 19615; above 200 µM in the data set with E. faecalis ATCC 29212; above 200 µM in the data set on S. aureus ATCC 43300. In addition, the MIC with E. coli ML-35p, against A. baumannii ATCC 19606, against P. aeruginosa ATCC 27853, in the data set with S. aureus ATCC BAA-44, against S. aureus ST1065 and in the data set with S. cerevisiae was above 200 µM each time. In [2], this substance came in with an MIC above 200 µM. For the same substance, the “MIC at pH 5” value in the data set with E. coli ATCC 25922 (ATCC 25922, pH 5) was 50 µM. The helix content in data set [1] is reported as 44%; in data set [3], 65%.
On to LLGMIPVAISAISALSKL-NH2 [PLS-S5], for which the MIC against S. aureus ATCC 25923 is on record as 25 µM; against E. coli ATCC 25922 it was above 100 µM; with E. faecalis ATCC 29212 it was 100 µM; against S. aureus ATCC 43300, above 100 µM; against E. coli ML-35p, above 100 µM; in the data set on P. aeruginosa ATCC 27853, above 100 µM. Moreover, the minimal inhibitory concentration (MIC) (in the data set on S. aureus ATCC BAA-44; against S. aureus ST1065; in data set [2]) was above 100 µM in each case. The figures for the helix content in [1] and in data set [3] were 20% and 60%, respectively.
